Legend:
Test in all cases: COMPOUND A In Vitro Assay
Assay type in all cases: cell-based
HCC1954 = details: Homo sapiens, Breast, mammary gland, TP53 Mutant
In short: (§1)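 Screening format: high throughput. Agent: RG7112 (MDM2 antagonist). Cells: diverse human cancer lines. Derived value: IC50, with the cut-offs sensitive <=1 and resistant >=10.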

NCI-H1048 = details: Homo sapiens, Lung, TP53 Mutant
In short: as §1

PC-3 = details: Homo sapiens, Prostate, TP53 Mutant
In short: as §1

Hs 766T = details: Homo sapiens, Hs766T, Pancreas, TP53 Mutant
In short: as §1

NCI-H1781 = details: Homo sapiens, Lung, TP53 Mutant
In short: as §1

SW1417 = details: Homo sapiens, Intestine, large, colon, TP53 Mutant
In short: as §1

SNU-1 = details: Homo sapiens
In short: as §1

MIA PaCa-2 = details: Homo sapiens, Pancreas, TP53 Mutant
In short: as §1

KATO-III = details: Homo sapiens, Stomach, TP53 Mutant
In short: as §1

NCI-H2347 = details: Homo sapiens, Lung, TP53 Wild type
In short: as §1

PLC/PRF/5 = details: Homo sapiens, Liver, TP53 Mutant
In short: as §1

ME-180 = details: Homo sapiens, Cervix, TP53 Wild type
In short: as §1

Hep3B = details: Homo sapiens, Liver, TP53 Mutant
In short: as §1

HPAC = details: Homo sapiens, Pancreas, TP53 Mutant
In short: as §1

PA-1 = details: Homo sapiens
In short: as §1

ARH-77 = details: Homo sapiens, Lymphocyte B, peripheral blood, TP53 Mutant
In short: as §1

NCI-H1993 = details: Homo sapiens, Lung, TP53 Mutant
In short: as §1

MDA-MB-468 = details: Homo sapiens, Breast, mammary gland, TP53 Mutant
In short: as §1

OPM-2 = details: Homo sapiens, Lymphocyte B, TP53 Mutant
In short: as §1

NCI-H508 = details: Homo sapiens, Intestine, large, caecum, TP53 Mutant
In short: as §1

U266B1 = details: Homo sapiens
In short: as §1

SJCRH30 = details: Homo sapiens, Muscle, TP53 Mutant
In short: as §1

DMS 114 = details: Homo sapiens, Lung, TP53 Mutant
In short: as §1

HCC1937 = details: Homo sapiens, Breast, TP53 NA
In short: as §1

KHM-1B = details: Homo sapiens, Lymphocyte, TP53 Wild type
In short: as §1

SW480 = details: Homo sapiens, Intestine, large, colon, TP53 Mutant
In short: as §1

PC-6 = details: Homo sapiens, Lung, TP53 Wild type
In short: as §1

BT-20 = details: Homo sapiens, Breast, mammary gland, TP53 Mutant
In short: as §1

KMS-11 = details: Homo sapiens, Lymphocyte, TP53 Wild type
In short: as §1

EFO-21 = details: Homo sapiens, Ovary, TP53 Mutant
In short: as §1

Detroit 562 = details: Homo sapiens, Pharynx, TP53 Mutant
In short: as §1

NCI-H929 = details: Homo sapiens, Lymphocyte B, bone marrow, TP53 Wild type
In short: as §1

8305C = details: Homo sapiens, Thyroid gland, TP53 Mutant
In short: as §1

T98G = details: Homo sapiens, Brain, TP53 Mutant
In short: as §1

ACHN = details: Homo sapiens
In short: as §1

L-363 = details: Homo sapiens, Lymphocyte, peripheral blood, TP53 Mutant
In short: as §1

KMS-34 = details: Homo sapiens, Lymphocyte, TP53 Mutant
In short: as §1

CCOc1cc(C(C)(C)C)ccc1C1=N[C@@](C)(c2ccc(Cl)cc2)[C@@](C)(c2ccc(Cl)cc2)N1C(=O)N1CCN(CCCS(C)(=O)=O)CC1 [COMPOUND A]
IC50 (HCC1954): 12 µM
IC50 (NCI-H1048): 9.4 µM
IC50 (PC-3): 9 µM
IC50 (Hs 766T): 17 µM
IC50 (NCI-H1781): 8.8 µM
IC50 (SW1417): 9.9 µM
IC50 (SNU-1; SNU1, SNU-1, Stomach, TP53 Wild type): 0.37 µM
IC50 (SNU-1; SNU1, SNU-1 cells): 0.4 µM
IC50 (MIA PaCa-2): 19 µM
IC50 (KATO-III): 9.7 µM
IC50 (NCI-H2347): 9 µM
IC50 (PLC/PRF/5): 7 µM
IC50 (ME-180): 9.3 µM
IC50 (Hep3B): 6.7 µM
IC50 (HPAC): 4.6 µM
IC50 (PA-1; PA-1, PA-1, Ovary, TP53 Wild type): 0.62 µM
IC50 (PA-1; PA-1, PA-1 cells): 0.6 µM
IC50 (ARH-77): 17 µM
IC50 (NCI-H1993): 7.7 µM
IC50 (MDA-MB-468): 10 µM
IC50 (OPM-2): 13 µM
IC50 (NCI-H508): 1.2 µM
IC50 (U266B1; U266B1, Lymphocyte B, TP53 Mutant): 18 µM
IC50 (U266B1; U266B1 cells): 18 µM
IC50 (SJCRH30): 16 µM
IC50 (DMS 114): 10 µM
IC50 (HCC1937): 15 µM
IC50 (KHM-1B): 6.9 µM
IC50 (SW480): 12 µM
IC50 (PC-6): 8.2 µM
IC50 (BT-20): 3.6 µM
IC50 (KMS-11): 12 µM
IC50 (EFO-21): 31 µM
IC50 (Detroit 562): 6.2 µM
IC50 (NCI-H929): 0.3 µM
IC50 (8305C): 24 µM
IC50 (T98G): 8.3 µM
IC50 (ACHN; ACHN cells): 0.3 µM
IC50 (ACHN; Kidney, TP53 Wild type): 0.29 µM
IC50 (L-363): 32 µM
IC50 (KMS-34): 9.8 µM
